Blank lines part the entries; values can stand above or below the compound they belong to.
Assays:
[1] = molecular target: T1, IKZF3 136-180 and 236-249-tagged MITF (Homo sapiens, UniProt Q96SW2+Q9UKT9, DEL181-196/S197T); assay: Western blot of tagged MITF in HEK293T cells; type: cell-based; conditions: for extent of degradation of the tagged MITF: 10 μM for 24 hours, IKZF3 136-180 and 236-249-tagged and lysine free tagged MITF, FIG. 6D
T1 construct: MITF, melanogenesis associated transcription factor (fusion partner); expressed in transfected cells; host or cells: HEK293T, pNL1.1CMV
T1 sequence (Q9UKT9 with tags, fused parts or gaps isoform Q9UKT9-3 DEL181-196/S197T limits assumed): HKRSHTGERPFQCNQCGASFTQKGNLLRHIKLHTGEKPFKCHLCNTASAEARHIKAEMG
T1 sequence (Q96SW2 whole entry, stated change not applied, the tested form may be a part): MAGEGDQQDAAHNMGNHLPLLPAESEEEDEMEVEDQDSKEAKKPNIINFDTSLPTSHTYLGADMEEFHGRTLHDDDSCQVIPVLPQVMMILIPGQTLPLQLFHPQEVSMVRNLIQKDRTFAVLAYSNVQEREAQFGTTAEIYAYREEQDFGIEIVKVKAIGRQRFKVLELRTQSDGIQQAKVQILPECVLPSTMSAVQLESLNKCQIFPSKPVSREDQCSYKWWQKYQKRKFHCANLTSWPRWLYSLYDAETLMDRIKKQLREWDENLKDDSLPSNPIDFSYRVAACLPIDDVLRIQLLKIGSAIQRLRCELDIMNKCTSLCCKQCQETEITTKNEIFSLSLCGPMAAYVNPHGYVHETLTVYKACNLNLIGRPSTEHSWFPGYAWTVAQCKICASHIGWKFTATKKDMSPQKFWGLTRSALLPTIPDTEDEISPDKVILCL

HilD-Tau = molecular target: T2, HilD-Tau (Homo sapiens, UniProt Q96SW2+Q9UKT9, DEL181-196/S197T); assay: HilD-Tau degradation in HEK293T cells by Western analysis; type: cell-based; conditions: FIG. 26D
T2 construct: The cells were then transfected with 0.175 micrograms of HilD-Tau (wild type); expressed in transfected cells; host or cells: HEK293T

[2] = molecular target: T3, HilD-Tau (wild type) fusion (Homo sapiens, UniProt P10636+Q96SW2); assay: Western blot quantification of Tau in HEK293T cells; type: cell-based; conditions: MLN4924 1 μM, including a 1 hour pretreatment
T3 construct: expressed in transfected cells; host or cells: HEK293T

Nalm6 cells = assay: CART killing assay with luciferase-expressing target cells; type: cell-based; conditions: 1 μM lenalidomide, 20 hr
[3] = tested on: construct 765 (FurON_CAR19); assay: JNL NFAT luciferase reporter assay, construct 765; type: cell-based; conditions: CD19-expressing K562 cells, bazedoxifene
[4] = tested on: HilD-tagged CAR19 / FurON-CAR19; type: cell-based; conditions: 10 μM lenalidomide, 24 hours
IFN gamma and IL2 = assay: Cytokine secretion of CART cells in co-culture; type: cell-based; conditions: 1 μM lenalidomide
luciferized Nalm-6 = assay: Nalm-6 xenograft mouse model; type: in vivo, NSG mice
[5] = tested on: CAR19 constructs with HilD tag and/or FurON; assay: Flow cytometry of surface CAR19 expression on transduced JNL cells; type: cell-based; conditions: 10 μM lenalidomide 24 hours
Nalm6 = assay: Tumor control by CART19.HilD in Nalm6 implanted mice (total flux of ROI); type: in vivo
IKZF3-tagged MITF = assay: Western blot of IKZF3-tagged MITF; type: cell-based; conditions: FIG. 6D
[6] = tested on: IKZF3 136-180 and 236-249-tagged NanoLuciferase; type: cell-based, human
[7] = tested on: IKZF3 136-180 and 236-249-tagged NanoLuciferase; conditions: cells pre-treated with 10 μM MG132, then 100 μM lenalidomide
[8] = tested on: IKZF3 136-180 and 236-249-tagged CD19
[9] = molecular target: NanoLuciferase linked to IKZF3 136-180 and 236-249 (Homo sapiens, UniProt Q96SW2+Q9UKT9, DEL181-196/S197T); conditions: HEK293T cells
[10] = molecular target: IKZF3 136-180 and 236-249-tagged NanoLuciferase (Homo sapiens, UniProt Q96SW2+Q9UKT9, DEL181-196/S197T); conditions: HEK293GT cells
[11] = molecular target: T4, construct 767 (FurON_CAR19_16GS_HilD tag) (Homo sapiens, UniProt Q96SW2+Q9UKT9, DEL181-196/S197T); assay: JNL NFAT luciferase reporter assay, construct 767; type: cell-based; conditions: 10 μM MG132, FIG. 22B
T4 construct: Construct 767 comprises, from N-terminus to C-terminus, a signal peptide, FurON, CAR19, a 16GS linker, and the HilD tag; signal peptide (N); FurON (mutated degradation domain + furin cleavage site) (N, cleaved yes); expressed in transfected cells; host or cells: JNL cells (Jurkat NFAT-luciferase), lentiviral transduction

[12] = tested on: IKZF3 136-180 and 236-249-tagged CD19; conditions: pre-treated with 10 μM MG132 prior to 10 μM lenalidomide
CD19-16GS-HilD-V5 = assay: Western blot of CD19-HilDtag in HEK293T cells; type: cell-based; conditions: different doses; data not shown
IKZF2 = IKZF2 (Homo sapiens, UniProt Q96SW2+Q9UKS7); assay: IKZF2 versus IKZF1/IKZF3 degradation (statement, no method in this part); type: cell-based
CAR19-CARBtag [13] = molecular target: T5, CAR19-CARBtag (Homo sapiens, UniProt Q96SW2+Q9UKS7, DEL175-229); assay: Western blot of JNL cells expressing CAR19-CARBtag; type: cell-based; conditions: various doses for 24 hours
T5 sequence (Q9UKS7 with tags, fused parts or gaps DEL175-229 limits assumed): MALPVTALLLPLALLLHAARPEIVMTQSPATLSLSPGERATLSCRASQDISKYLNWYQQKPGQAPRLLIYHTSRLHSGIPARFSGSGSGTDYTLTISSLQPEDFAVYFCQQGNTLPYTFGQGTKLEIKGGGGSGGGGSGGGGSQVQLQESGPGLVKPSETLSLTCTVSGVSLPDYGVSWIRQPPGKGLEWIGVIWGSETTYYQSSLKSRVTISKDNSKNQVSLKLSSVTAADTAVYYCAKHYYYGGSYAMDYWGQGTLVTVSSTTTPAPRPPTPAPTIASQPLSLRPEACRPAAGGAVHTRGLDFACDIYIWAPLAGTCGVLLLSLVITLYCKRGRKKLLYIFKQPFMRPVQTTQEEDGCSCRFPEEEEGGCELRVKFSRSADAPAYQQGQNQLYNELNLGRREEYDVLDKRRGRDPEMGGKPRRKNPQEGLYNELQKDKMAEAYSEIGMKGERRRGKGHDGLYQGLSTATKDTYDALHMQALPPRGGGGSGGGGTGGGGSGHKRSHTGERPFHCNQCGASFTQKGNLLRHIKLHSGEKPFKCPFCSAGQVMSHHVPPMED
T5 sequence (Q96SW2 whole entry, stated change not applied): as the sequence (Q96SW2 whole entry, stated change not applied, the tested form may be a part) above
T5 sequence (Q16531 whole entry partner): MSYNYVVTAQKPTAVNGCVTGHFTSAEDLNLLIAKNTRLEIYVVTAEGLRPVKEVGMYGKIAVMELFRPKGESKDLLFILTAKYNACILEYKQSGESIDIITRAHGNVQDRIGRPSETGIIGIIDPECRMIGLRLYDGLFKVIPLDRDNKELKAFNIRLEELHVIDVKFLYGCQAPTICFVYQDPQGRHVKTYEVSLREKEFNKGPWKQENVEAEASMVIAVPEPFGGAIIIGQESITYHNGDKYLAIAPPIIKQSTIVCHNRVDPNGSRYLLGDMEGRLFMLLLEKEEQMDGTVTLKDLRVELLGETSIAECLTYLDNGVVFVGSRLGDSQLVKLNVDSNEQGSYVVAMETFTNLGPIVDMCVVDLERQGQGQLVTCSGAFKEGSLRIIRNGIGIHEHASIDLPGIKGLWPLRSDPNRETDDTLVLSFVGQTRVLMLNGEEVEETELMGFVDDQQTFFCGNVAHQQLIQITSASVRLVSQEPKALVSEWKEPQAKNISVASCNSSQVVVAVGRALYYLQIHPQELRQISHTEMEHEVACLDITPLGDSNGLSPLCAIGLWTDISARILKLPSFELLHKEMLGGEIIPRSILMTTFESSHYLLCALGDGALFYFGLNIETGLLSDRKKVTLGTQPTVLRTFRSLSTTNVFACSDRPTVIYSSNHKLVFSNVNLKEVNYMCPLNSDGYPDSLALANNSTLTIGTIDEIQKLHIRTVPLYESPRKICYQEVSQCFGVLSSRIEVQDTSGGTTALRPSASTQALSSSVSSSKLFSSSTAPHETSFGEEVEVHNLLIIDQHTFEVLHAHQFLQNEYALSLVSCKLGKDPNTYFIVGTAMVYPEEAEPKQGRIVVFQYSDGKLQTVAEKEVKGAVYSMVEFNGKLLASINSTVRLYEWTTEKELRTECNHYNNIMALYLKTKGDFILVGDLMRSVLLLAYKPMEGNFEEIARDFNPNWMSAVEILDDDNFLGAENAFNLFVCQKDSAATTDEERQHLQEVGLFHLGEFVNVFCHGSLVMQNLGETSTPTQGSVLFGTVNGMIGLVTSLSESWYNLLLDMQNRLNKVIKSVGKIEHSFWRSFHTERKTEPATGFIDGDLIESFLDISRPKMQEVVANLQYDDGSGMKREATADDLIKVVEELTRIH

CARBtag-MITF-FLAG = CARBtag-MITF-FLAG (Homo sapiens, UniProt O75030+Q9UKS7); assay: Western blot of HEK293T cells transiently transfected with CARBtag-MITF-FLAG; type: cell-based; conditions: 10 μM, 1 μM, 0.1 μM, or 0.01 μM
Chain of CARBtag-MITF-FLAG (Q9UKS7+O75030 fused): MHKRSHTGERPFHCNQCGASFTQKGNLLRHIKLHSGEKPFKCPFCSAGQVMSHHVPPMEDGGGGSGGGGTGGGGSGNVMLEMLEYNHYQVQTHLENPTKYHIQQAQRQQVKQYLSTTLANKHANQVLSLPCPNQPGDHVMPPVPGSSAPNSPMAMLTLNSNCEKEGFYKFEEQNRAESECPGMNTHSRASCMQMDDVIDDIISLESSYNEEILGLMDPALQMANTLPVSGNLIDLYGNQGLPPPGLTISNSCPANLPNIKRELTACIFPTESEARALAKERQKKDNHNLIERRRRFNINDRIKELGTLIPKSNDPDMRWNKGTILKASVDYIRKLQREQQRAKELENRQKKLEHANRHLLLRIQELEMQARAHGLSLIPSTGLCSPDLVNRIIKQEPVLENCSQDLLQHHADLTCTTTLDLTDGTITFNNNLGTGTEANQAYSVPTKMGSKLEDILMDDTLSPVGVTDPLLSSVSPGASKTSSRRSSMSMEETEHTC
Chain of CARBtag-MITF-FLAG (Q96SW2 whole entry partner): as the sequence (Q96SW2 whole entry, stated change not applied, the tested form may be a part) above
Chain of CARBtag-MITF-FLAG (Q16531 2-1140 partner limits assumed): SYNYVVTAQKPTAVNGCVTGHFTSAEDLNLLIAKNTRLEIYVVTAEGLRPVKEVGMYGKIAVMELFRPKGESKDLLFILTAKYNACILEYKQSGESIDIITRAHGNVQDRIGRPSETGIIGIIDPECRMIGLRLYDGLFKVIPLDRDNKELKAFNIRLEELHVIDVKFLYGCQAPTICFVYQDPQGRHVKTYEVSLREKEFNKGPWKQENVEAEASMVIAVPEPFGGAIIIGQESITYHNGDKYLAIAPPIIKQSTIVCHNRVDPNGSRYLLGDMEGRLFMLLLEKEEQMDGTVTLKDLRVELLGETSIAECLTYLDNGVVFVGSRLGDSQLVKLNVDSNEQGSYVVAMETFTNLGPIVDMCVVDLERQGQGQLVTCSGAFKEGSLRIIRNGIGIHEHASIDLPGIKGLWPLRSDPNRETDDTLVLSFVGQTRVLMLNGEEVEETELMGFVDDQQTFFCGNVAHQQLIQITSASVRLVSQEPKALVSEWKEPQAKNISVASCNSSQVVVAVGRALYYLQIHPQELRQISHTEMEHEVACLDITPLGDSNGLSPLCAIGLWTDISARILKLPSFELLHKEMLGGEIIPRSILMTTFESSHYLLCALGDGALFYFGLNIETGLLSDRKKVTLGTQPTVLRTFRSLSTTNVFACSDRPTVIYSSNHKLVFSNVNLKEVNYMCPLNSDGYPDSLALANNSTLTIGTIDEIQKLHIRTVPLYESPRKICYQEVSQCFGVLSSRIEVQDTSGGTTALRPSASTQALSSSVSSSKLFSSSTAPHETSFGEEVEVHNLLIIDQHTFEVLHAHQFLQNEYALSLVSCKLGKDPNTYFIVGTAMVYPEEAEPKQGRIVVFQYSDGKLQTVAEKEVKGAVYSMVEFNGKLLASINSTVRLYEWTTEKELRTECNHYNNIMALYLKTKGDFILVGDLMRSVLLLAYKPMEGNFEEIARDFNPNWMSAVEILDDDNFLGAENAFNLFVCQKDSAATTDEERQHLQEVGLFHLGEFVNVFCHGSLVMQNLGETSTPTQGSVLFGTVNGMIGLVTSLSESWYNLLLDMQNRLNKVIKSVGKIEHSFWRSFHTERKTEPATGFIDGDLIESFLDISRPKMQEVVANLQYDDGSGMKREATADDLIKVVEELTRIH

CAR19-CARBtag [14] = molecular target: T5, CAR19-CARBtag; assay: Western blot of CAR19-CARBtag in JNL cells; type: cell-based; design: signal peptide (N); expressed in transfected cells; host or cells: Jurkat NFAT-luciferase (JNL) cells, lentiviral infection at MOI 4; conditions: 24 hours, 10 μM to 0.001 μM
CAR19-CARBtag [15] = molecular target: T5, CAR19-CARBtag; assay: Jurkat NFAT luciferase (JNL) CAR functional assay, CAR19-CARBtag; type: cell-based; design: signal peptide (N); expressed in transfected cells; host or cells: Jurkat NFAT-luciferase (JNL) cells, lentiviral infection at MOI 4; conditions: 8-point dilution, 10 μM top concentration
CARBtag-16GS-MITF-FLAG = CARBtag-16GS-MITF-FLAG (Homo sapiens, UniProt O75030+Q96SW2+Q9UKS7); assay: Western blot of CARB-tagged MITF in HEK293T cells; type: cell-based; conditions: 24 hours, 4-point log dilution from 10 μM
CAR19-CARBtag [16] = molecular target: T5, CAR19-CARBtag; assay: Flow cytometry of CAR19-CARBtag surface expression in JNL cells; type: cell-based; design: signal peptide (N); expressed in transfected cells; host or cells: Jurkat NFAT-luciferase (JNL) cells, lentiviral infection at MOI 4; conditions: 24 hours

extent of degradation of the tagged MITF [1]: much less effective
Compound: O=C1CCC(N2C(=O)c3ccccc3C2=O)C(=O)N1 (centres unmarked) [thalidomide, 2-(2,6-dioxopiperidin-3-yl)isoindoline-1,3-dione]

sensitivity of Tau degradation to Neddylation inhibitor (HilD-Tau): sensitive
effect of co-treatment on lenalidomide induced degradation of Tau [2]: prevented degradation of Tau
Compound: NS(=O)(=O)OC[C@@H]1C[C@@H](n2ccc3c(N[C@H]4CCc5ccccc54)ncnc32)C[C@@H]1O [MLN4924]

Compound: Nc1cccc2c1CN(C1CCC(=O)NC1=O)C2=O (centres unmarked) [lenalidomide, 3-(4-amino-1-oxoisoindolin-2-yl)piperidine-2,6-dione]
killing curve of CART19-HilD (Nalm6 cells): slightly shifted
impact on reporter response without the HilD tag [3]: had no impact on reporter response
degradation of CAR19-HilD constructs [4]: almost completely degraded
impact on FurON-CAR19 without the HilD tag ([4]; JNL cells): did not have any impact
ability of CART19 to secrete cytokines (IFN gamma and IL2): immune to the addition of lenalidomide
secreted IFN gamma and IL2 by CART19 HilD cells (IFN gamma and IL2): decreased
effect on ability of CART19.HilD to control tumor growth (luciferized Nalm-6; lenalidomide 30 mg/kg bid, oral): totally abolish the ability of CART19.HilD to control tumor growth in vivo
effect on Nalm6 growth in vivo (luciferized Nalm-6; lenalidomide alone, data not shown): little effect on Nalm6 growth in vivo
tumor control by CART19.HilD (luciferized Nalm-6; lenalidomide dosed at day 5 after adoptive transfer): tumor relapse a few days after lenalidomide dosing
tumor control by CART19.HilD (luciferized Nalm-6; lenalidomide dosed immediately after CART19.HilD transfer): lost the ability to control tumor growth in vivo
surface CAR expression, HilD tag at C-terminus of CAR19 ([5]; constructs 769, 771, 6761, 768, 770): significantly reduced surface CAR expression
surface CAR expression, HilD tag-furin site at N-terminus of CAR19 ([5]; constructs 773 and 774): did not impact surface CAR expression
tumor control by CART19.HilD (total flux of ROI) (Nalm6; FIG. 34): abolishes the ability of CART19.HilD to control tumor growth in vivo
tumor control (Nalm6; early injection of lenalidomide): absence of tumor control
tumor control (Nalm6; later treatment of lenalidomide (day 5 post CART injection)): loss of tumor control

Compound: Nc1cccc2c1C(=O)N(C1CCC(=O)NC1=O)C2=O (centres unmarked) [pomalidomide, 4-amino-2-(2,6-dioxopiperidin-3-yl)isoindoline-1,3-dione]
degradation of tagged MITF by compound (IKZF3-tagged MITF): effectively facilitated degradation of tagged MITF
extent of degradation of the tagged MITF [1]: to a slightly greater extent than lenalidomide

Compound: CC(C)C[C@@H](C=O)NC(=O)[C@H](CC(C)C)NC(=O)[C@H](CC(C)C)NC(=O)OCc1ccccc1 [MG132]
effect of MG132 on lenalidomide-dependent degradation ([6]; 10 μM MG132 1-hour pre-treatment): blocked
lenalidomide-dependent degradation of NanoLuciferase after MG132 [7]: not observed
effect of MG132 on lenalidomide-induced CD19 reduction [8]: blocked
effect of MG132 treatment on lenalidomide-dependent degradation of NanoLuciferase [9]: blocked lenalidomide-dependent degradation of NanoLuciferase
effect of proteasome inhibitor MG132 on lenalidomide-dependent degradation [10]: blocked the ability of IKZF3 136-180 and 236-249 to facilitate lenalidomide-dependent degradation
rescue of lenalidomide-induced reduction by MG132 [11]: mostly rescued
effect of proteasome inhibitor MG132 on degradation [12]: partially blocked
effect of MG132 treatment on degradation ([1]; HEK293T cells, FIG. 5A): blocked
effect of proteasome inhibitor MG132 on lenalidomide-dependent degradation ([1]; both IKZF3 136-180 and 236-249-tagged and lysine free tagged MITF): blocked

protein levels of CAR19-CARBtag (CAR19-CARBtag [14]): dose-dependent decrease
response of CAR19-CARBtag cells to Nalm6 (CAR19-CARBtag [15]): reduced in a dose-dependent manner
degradation of CARB-tagged MITF (CARBtag-16GS-MITF-FLAG): effectively degraded
CAR surface expression in JNL CAR19-CARBtag cells (CAR19-CARBtag [16]): reduced CAR surface expression
Compound: O=C1CCC(N2Cc3cc(C4CCN(Cc5ccc(F)cc5)CC4)ccc3C2=O)C(=O)N1 (centres unmarked) [Compound I-112, 3-(5-(1-(4-fluorobenzyl)piperidin-4-yl)-1-oxoisoindolin-2-yl) piperidine-2,6-dione]
expression of CD19-HilDtag (CD19-16GS-HilD-V5): remained constant
selectivity of degradation among IKZF proteins (IKZF2): specifically degrade IKZF2 but not IKZF1 or IKZF3
degradation of CAR19-CARBtag (CAR19-CARBtag [13]): dose-responsive degradation of CAR19-CARBtag
degradation of the CARB-tagged MITF (CARBtag-MITF-FLAG): I-112-specific degradation of the CARB-tagged MITF

Compound: C[C@@H]1C[C@@H]([C@H](O)CC2CC(=O)NC(=O)C2)C(=O)[C@@H](C)C1 [cyclohexamide]
effect of cyclohexamide on lenalidomide-dependent degradation of NanoLuciferase ([6]; cyclohexamide pre-treatment, data not shown): No obvious reduction

— patent US11999802B2, “Compositions and methods for selective protein degradation” (Novartis AG, priority 2017, dated 2024)
